For assay [1], the system named is Akt serine-473 phosphorylation. The assay is described as follows: In vitro Phospho-Akt cellular assay (pAkt S473) in HEK293T/17 cells. The class given is cell-based. The following applies: Homo sapiens, 2 hours. The source says:
Activation of mTOR signaling results in phosphorylation of several downstream targets. In cells, mTOR exists in two different protein complexes. The mTOR Complex-1 (mTORC1) phosphorylates and activates S6 Kinase 1 (S6K1) and S6 Kinase 2 (S6K2) (also known as p70S6K) which then phosphorylate S6 Ribosomal Protein (S6RP) (also known as RPS6)3. S6RP is phosphorylated on serine 235, serine 236, serine 240 and serine 244 by both pS6K1 and pS6K2. The mTOR Complex-2 (mTORC2) phosphorylates AKT on serine 473 which activates the AKT signaling pathway.
The assay measures a test compound's inhibition of S6RP serine-240/244 phosphorylation and inhibition of Akt serine-473 phosphorylation in human embryonic kidney derived HEK293T/17 cells (ATCC CRL-11268).
The HEK293T/17 cell line is maintained in DMEM media (Invitrogen catalogue number 41965-039) supplemented with 10% FCS at 37° C. in a 5% CO2 humidified incubator.
Cells are seeded in 96-well plates at 40,000 cells/well (pS6RP S240/244 assay) or 80,000 cells/well (pAkt S473 assay) in 90 μl growth media (DMEM, 2% FCS). Plates are incubated for 1 hour in a humidified incubator to allow the cells to adhere. Cells are treated with 8 concentrations of test compounds or DMSO alone for controls (final DMSO concentration 0.1%) and incubated at 37° C. for 2 hours. Then 20 μl of 5× concentrated lysis buffer (750 mM NaCl, 100 mM Tris pH7.4, 5 mM ADTA, 5 mM EGTA, 5% Triton X-100) is added, plates are sealed and incubated for 15 minutes at 4° C. with gentle shaking. After cell lysis, 25 μl cell lysate is transferred to a MesoScale plate coated with an antibody to pS6RP Ser240/244 (MesoScale Discovery K150DGD-3) or an antibody to pAkt Ser 473 (MesoScale Discovery K151DGD-3). Plates have been blocked before by incubation with 150 μl MesoScale Discovery Blocking Solution-A for 1 hour at room temperature followed by washing with 150 μl 1× Tris wash buffer per well. After the transfer of the cell lysate to the MSD plate, the pS6RP (or pAkt) protein is captured on the coated antibody by incubation at room temperature for 1 hour with gentle shaking. After the capture step the plate is washed three times with 150 μl of 1× Tris wash buffer per well. Then 25 μl detection antibody conjugated with a Sulfo-Tag is added and incubated for 1 hour at room temperature with gentle shaking. Subsequently the antibody solution is removed and the plate is washed 3 times with 150 μl×Tris wash buffer per well and 150 μl Read buffer is added. The plates are analysed on a MSD 2400 Plate Reader (MesoScale Discovery). Data analysis is performed using nonlinear regression for a sigmoidal dose-response with a variable slope.

The next assay concerns the target T1, PI3Kalpha (PI3Ka) (Homo sapiens, UniProt P42336).
T1 construct: endogenous in cells; host or cells: cell lysate
The assay is described as follows: kinobeads assay, PI3Kalpha. It counts as binding. The following applies: kinobeads assay, Table 6. The essentials:
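IC50s are fitted to per-kinase dose-response curves. Kinases retained on phenylmorpholin-chromen affinity beads are read by multiplexed immunodetection after elution. Compound, added at a range of concentrations straight into cell lysate, competes for this bead capture.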

T1 sequence (P42336 whole entry): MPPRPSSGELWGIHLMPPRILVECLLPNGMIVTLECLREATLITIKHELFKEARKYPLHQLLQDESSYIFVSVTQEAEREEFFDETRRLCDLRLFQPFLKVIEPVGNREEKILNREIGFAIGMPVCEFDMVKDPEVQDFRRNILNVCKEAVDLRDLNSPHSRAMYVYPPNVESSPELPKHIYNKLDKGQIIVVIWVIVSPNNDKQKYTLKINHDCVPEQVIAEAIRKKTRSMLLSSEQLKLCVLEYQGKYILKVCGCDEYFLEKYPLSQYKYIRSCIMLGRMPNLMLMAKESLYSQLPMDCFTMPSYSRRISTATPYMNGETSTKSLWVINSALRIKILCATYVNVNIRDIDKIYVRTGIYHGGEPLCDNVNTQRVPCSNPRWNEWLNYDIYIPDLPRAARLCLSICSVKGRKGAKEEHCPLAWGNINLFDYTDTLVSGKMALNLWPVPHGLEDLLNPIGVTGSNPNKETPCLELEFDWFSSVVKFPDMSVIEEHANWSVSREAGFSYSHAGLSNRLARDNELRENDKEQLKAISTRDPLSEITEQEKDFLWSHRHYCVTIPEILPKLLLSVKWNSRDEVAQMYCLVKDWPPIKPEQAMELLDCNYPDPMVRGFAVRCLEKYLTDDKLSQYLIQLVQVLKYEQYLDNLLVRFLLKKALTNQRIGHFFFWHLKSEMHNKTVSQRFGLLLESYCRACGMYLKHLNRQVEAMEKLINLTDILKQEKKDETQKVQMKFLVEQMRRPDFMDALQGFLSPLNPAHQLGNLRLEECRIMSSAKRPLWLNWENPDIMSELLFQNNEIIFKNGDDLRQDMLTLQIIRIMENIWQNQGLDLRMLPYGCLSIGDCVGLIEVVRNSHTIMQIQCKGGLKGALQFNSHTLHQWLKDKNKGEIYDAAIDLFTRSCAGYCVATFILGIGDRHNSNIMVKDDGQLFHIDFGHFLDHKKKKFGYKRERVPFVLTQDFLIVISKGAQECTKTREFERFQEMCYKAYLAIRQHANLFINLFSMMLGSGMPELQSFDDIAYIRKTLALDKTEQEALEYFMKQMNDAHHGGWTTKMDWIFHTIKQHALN
T1 sequence (P27986 whole entry partner): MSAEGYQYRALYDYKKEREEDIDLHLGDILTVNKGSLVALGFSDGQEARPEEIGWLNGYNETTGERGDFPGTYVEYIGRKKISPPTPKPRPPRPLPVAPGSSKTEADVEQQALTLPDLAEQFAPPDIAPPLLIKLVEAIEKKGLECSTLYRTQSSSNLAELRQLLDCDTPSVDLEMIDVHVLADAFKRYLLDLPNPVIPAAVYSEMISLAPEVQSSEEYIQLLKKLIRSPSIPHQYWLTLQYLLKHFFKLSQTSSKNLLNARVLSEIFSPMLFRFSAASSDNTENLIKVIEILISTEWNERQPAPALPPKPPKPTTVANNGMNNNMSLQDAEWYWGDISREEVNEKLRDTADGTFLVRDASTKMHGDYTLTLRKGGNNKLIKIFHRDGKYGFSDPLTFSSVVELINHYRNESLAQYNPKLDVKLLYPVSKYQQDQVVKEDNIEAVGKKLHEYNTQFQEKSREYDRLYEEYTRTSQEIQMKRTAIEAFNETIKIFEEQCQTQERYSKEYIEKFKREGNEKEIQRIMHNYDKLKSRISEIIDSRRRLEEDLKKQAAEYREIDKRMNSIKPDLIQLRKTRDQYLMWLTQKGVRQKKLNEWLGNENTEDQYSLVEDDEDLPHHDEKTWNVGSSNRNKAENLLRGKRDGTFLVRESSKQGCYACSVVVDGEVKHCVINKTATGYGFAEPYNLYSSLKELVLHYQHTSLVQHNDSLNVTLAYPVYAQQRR

The term IC50 denotes the concentration at which inhibition is half-maximal. `CCNC(=O)Nc1ccc(-c2nc3c(c(N4CCOC[C@@H]4C)n2)CCN(C(=O)C(C)(C)C)C3)cc1` [Example 58, (S)-1-ethyl-3-(4-(4-(3-methylmorpholino)-7-pivaloyl-5,6,7,8-tetrahydropyrido[3,4-d]pyrimidin-2-yl)phenyl)urea]: in assay [1], the half-maximal inhibitory concentration (IC50) is 17 nM. Moreover, on PI3Kalpha (PI3Ka), the “Inhibition values (IC50) PI3Ka” value is “D (D >10 μM)”.

For `C[C@H]1COCCN1c1nc(-c2ccc(NC(=O)NC3CC3)cc2)nc2c1CCN(C(=O)C1CC1)C2` [Example 60, (S)-1-(4-(7-(cyclopropanecarbonyl)-4-(3-methylmorpholino)-5,6,7,8-tetrahydropyrido[3,4-d]pyrimidin-2-yl)phenyl)-3-cyclopropylurea], it took 21 nM to reach half-maximal inhibition in assay [1] (IC50). The “Inhibition values (IC50) PI3Ka” value at PI3Kalpha (PI3Ka) is given as “D (D >10 μM)”.

`CC(C)C(=O)N1CCc2c(nc(-c3ccc(NC(=O)NC4CC4)cc3)nc2N2CCOC[C@@H]2C)C1` [Example 61, (S)-1-cyclopropyl-3-(4-(7-isobutyryl-4-(3-methylmorpholino)-5,6,7,8-tetrahydropyrido[3,4-d]pyrimidin-2-yl)phenyl)urea] returned an IC50 in assay [1] of 20 nM. Moreover, the “Inhibition values (IC50) PI3Ka” value at PI3Kalpha (PI3Ka) is “D (D >10 μM)”.

For `C[C@H]1COCCN1c1nc(-c2ccc(NC(=O)NC3CC3)cc2)nc2c1CCN(C(=O)C(C)(C)C)C2` [Example 64, (S)-1-cyclopropyl-3-(4-(4-(3-methylmorpholino)-7-pivaloyl-5,6,7,8-tetrahydropyrido[3,4-d]pyrimidin-2-yl)phenyl)urea], the midpoint of inhibition in assay [1], the IC50, lay at 17 nM. Also, the “Inhibition values (IC50) PI3Ka” value on PI3Kalpha (PI3Ka) is on record as “D (D >10 μM)”.

The molecule `CCNC(=O)Nc1ccc(-c2nc3c(c(N4CCOC[C@@H]4C)n2)CN(CC(C)C)C3)cc1` [Example 66, (S)-1-ethyl-3-(4-(6-isobutyl-4-(3-methylmorpholino)-6,7-dihydro-5H-pyrrolo[3,4-d]pyrimidin-2-yl)phenyl)urea] came in with an IC50 in assay [1] of 54 nM. For the same molecule, the “Inhibition values (IC50) PI3Ka” value on PI3Kalpha (PI3Ka) is on record as “D (D >10 μM)”.

Molecule `CCNC(=O)Nc1ccc(-c2nc3c(c(N4CCOC[C@@H]4C)n2)CCN(C(=O)OCC)C3)cc1` [Example 77, (S)-ethyl 2-(4-(3-ethylureido)phenyl)-4-(3-methylmorpholino)-5,6-dihydropyrido[3,4-d]pyrimidine-7(8H)-carboxylate] registered an IC50 in assay [1] of 28 nM. For the same molecule, the “Inhibition values (IC50) PI3Ka” value on PI3Kalpha (PI3Ka) is “D (D >10 μM)”.

As for `CCOC(=O)N1CCc2c(nc(-c3ccc(NC(=O)NC4CC4)cc3)nc2N2CCOC[C@@H]2C)C1` [Example 78, (S)-ethyl 2-(4-(3-cyclopropylureido)phenyl)-4-(3-methylmorpholino)-5,6-dihydropyrido[3,4-d]pyrimidine-7(8H)-carboxylate], the half-maximal inhibitory concentration (IC50) in assay [1] came out at 21 nM. The “Inhibition values (IC50) PI3Ka” value on PI3Kalpha (PI3Ka) is on record as “D (D >10 μM)”.

As to `C[C@H]1COCCN1c1nc(-c2ccc(NC(=O)Nc3cccc(O)n3)cc2)nc2c1CN(C)C2` [Example 80, (S)-1-(6-hydroxypyridin-2-yl)-3-(4-(6-methyl-4-(3-methylmorpholino)-6,7-dihydro-5H-pyrrolo[3,4-d]pyrimidin-2-yl)phenyl)urea], the half-maximal inhibitory concentration (IC50) was 61 nM in assay [1] and 1000 to 10000 nM on PI3Kalpha (PI3Ka) (read-out: Inhibition values (IC50) PI3Ka).

As to `CCNC(=O)Nc1ccc(-c2nc3c(c(N4CCOC[C@@H]4C)n2)CCN(C(=O)OC)C3)cc1` [Example 81, (S)-methyl 2-(4-(3-ethylureido)phenyl)-4-(3-methylmorpholino)-5,6-dihydropyrido[3,4-d]pyrimidine-7(8H)-carboxylate], in assay [1], the IC50 amounted to 22 nM. In addition, at PI3Kalpha (PI3Ka), the “Inhibition values (IC50) PI3Ka” value is given as “D (D >10 μM)”.

`COC(=O)N1CCc2c(nc(-c3ccc(NC(=O)NC4CC4)cc3)nc2N2CCOC[C@@H]2C)C1` [Example 83, (S)-methyl 2-(4-(3-cyclopropylureido)phenyl)-4-(3-methylmorpholino)-5,6-dihydropyrido[3,4-d]pyrimidine-7(8H)-carboxylate] came in with an IC50 in assay [1] of 70 nM. The “Inhibition values (IC50) PI3Ka” value at PI3Kalpha (PI3Ka) was “D (D >10 μM)”.

For the molecule `CCNC(=O)Nc1ccc(-c2nc3c(c(N4CCOC[C@@H]4C)n2)CN(C)C3)cc1F` [Example 85, (S)-1-ethyl-3-(2-fluoro-4-(6-methyl-4-(3-methylmorpholino)-6,7-dihydro-5H-pyrrolo[3,4-d]pyrimidin-2-yl)phenyl)urea], the IC50 in assay [1] amounted to 531 nM. The “Inhibition values (IC50) PI3Ka” value on PI3Kalpha (PI3Ka) is given as “D (D >10 μM)”.

Consider `COC(=O)N1Cc2nc(-c3ccc(NC(=O)NC4CC4)cc3)nc(N3CCOC[C@@H]3C)c2C1` [Example 86, (S)-methyl 2-(4-(3-cyclopropylureido)phenyl)-4-(3-methylmorpholino)-5H-pyrrolo[3,4-d]pyrimidine-6(7H)-carboxylate], for which the IC50 in assay [1] was determined as 43 nM. In addition, the “Inhibition values (IC50) PI3Ka” value at PI3Kalpha (PI3Ka) is “D (D >10 μM)”.

`CCNC(=O)Nc1ccc(-c2nc3c(c(N4CCOC[C@@H]4C)n2)CCN(C(=O)NCC)C3)cc1` [Example 87, (S)—N-ethyl-2-(4-(3-ethylureido)phenyl)-4-(3-methylmorpholino)-5,6-dihydropyrido[3,4-d]pyrimidine-7(8H)-carboxamide]: the half-inhibitory concentration (IC50) in assay [1] was 91 nM. At PI3Kalpha (PI3Ka), the “Inhibition values (IC50) PI3Ka” value is given as “D (D >10 μM)”.

`CCNC(=O)N1CCc2c(nc(-c3ccc(NC(=O)NC4CC4)cc3)nc2N2CCOC[C@@H]2C)C1` [Example 88, (S)-2-(4-(3-cyclopropylureido)phenyl)-N-ethyl-4-(3-methylmorpholino)-5,6-dihydropyrido[3,4-d]pyrimidine-7(8H)-carboxamide] yielded an IC50 in assay [1] of 57 nM. The “Inhibition values (IC50) PI3Ka” value at PI3Kalpha (PI3Ka) was “D (D >10 μM)”.

In the case of `CCNC(=O)Nc1ccc(-c2nc3c(c(N4CCOC[C@@H]4C)n2)CN(C(=O)OC)C3)cc1` [Example 89, (S)-methyl 2-(4-(3-ethylureido)phenyl)-4-(3-methylmorpholino)-5H-pyrrolo[3,4-d]pyrimidine-6(7H)-carboxylate], the concentration for half-maximal inhibition (IC50) in assay [1] was 42 nM. Further, the “Inhibition values (IC50) PI3Ka” value on PI3Kalpha (PI3Ka) is on record as “D (D >10 μM)”.

`CCNC(=O)Nc1ccc(-c2nc3c(c(N4CCOC[C@@H]4C)n2)CN(C(=O)OCC)C3)cc1` [Example 90, (S)-ethyl 2-(4-(3-ethylureido)phenyl)-4-(3-methylmorpholino)-5H-pyrrolo[3,4-d]pyrimidine-6(7H)-carboxylate] returned an IC50 in assay [1] of 37 nM. Besides, the “Inhibition values (IC50) PI3Ka” value at PI3Kalpha (PI3Ka) is “D (D >10 μM)”.

For `CCNC(=O)Nc1ccc(-c2nc3c(c(N4CCOC[C@@H]4C)n2)CCN(C(=O)Cc2cccnc2)C3)cc1` [Example 91, (S)-1-ethyl-3-(4-(4-(3-methylmorpholino)-7-(2-(pyridin-3-yl)acetyl)-5,6,7,8-tetrahydropyrido[3,4-d]pyrimidin-2-yl)phenyl)urea], the IC50 in assay [1] was determined as 87 nM. Further, the “Inhibition values (IC50) PI3Ka” value on PI3Kalpha (PI3Ka) is on record as “D (D >10 μM)”.

`CCNC(=O)Nc1ccc(-c2nc3c(c(N4CCOC[C@@H]4C)n2)CN(C(=O)OCC)C3)cc1F` [Example 103, (S)-ethyl-2-(4-(3-ethylureido)-3-fluorophenyl)-4-(3-methylmorpholino)-5H-pyrrolo[3,4-d]pyrimidine-6(7H)-carboxylate]: 88 nM corresponded to half-maximal inhibition in assay [1] (IC50). Further, the “Inhibition values (IC50) PI3Ka” value on PI3Kalpha (PI3Ka) is listed as “D (D >10 μM)”.

On to `CCNC(=O)Nc1ccc(-c2nc3c(c(N4CCOC[C@@H]4C)n2)CCN(C)C3)c(F)c1` [Example 110, (S)-1-ethyl-3-(3-fluoro-4-(7-methyl-4-(3-methylmorpholino)-5,6,7,8-tetrahydropyrido[3,4-d]pyrimidin-2-yl)phenyl)urea], for which it took 118 nM to reach half-maximal inhibition in assay [1] (IC50). For the same molecule, the “Inhibition values (IC50) PI3Ka” value at PI3Kalpha (PI3Ka) is on record as “D (D >10 μM)”.

For the molecule `CCNC(=O)Nc1ccc(-c2nc3c(c(N4CCOC[C@@H]4C)n2)CN(C(=O)OCC)C3)c(F)c1` [Example 113, (S)-ethyl-2-(4-(3-ethylureido)-2-fluorophenyl)-4-(3-methylmorpholino)-5H-pyrrolo[3,4-d]pyrimidine-6(7H)-carboxylate], in assay [1], the 50% inhibitory concentration (IC50) worked out at 53 nM. Further, on PI3Kalpha (PI3Ka), the “Inhibition values (IC50) PI3Ka” value was “D (D >10 μM)”.

These data come from patent US8785457B2 (Cellzome Limited, priority 2009, dated 2014).
